Numbered stars: 1 amine (or outer) side, 2 acyl side, 3 side chain; on linkers, the order of the positions; unused ones are H or OH. Bridge positions count the residues as written; N and C are the ends. Square brackets hold non-standard residues; d marks the D form. Peptide text beside a SMILES is read from it. Hyp = O=C(O)[C@@H]1C[C@@H](O)CN1; Suc = O=C(CCC(=O)[*:2])[*:1]; NMeS = CN[C@@H](CO)C(=O)O; X1 = O=C(CCC[*:2])[*:1]; Dap = NC[C@H](N)C(=O)O; azaGly = NNC(=O)O; βAla = NCCC(=O)O; Mpa = O=C(O)CCS
How the values were obtained:
[1] = species: Homo sapiens; assay: Selectivity ratio of EC50 for human V1a receptor to EC50 for human OTR
[2] = target: Vasopressin V1a receptor (Homo sapiens, UniProt P37288); assay: Agonist activity at human V1a receptor expressed in CHO cells assessed as calcium mobilization measured after 30 mins by Fluo-4-AM dye based FLIPR assay; type: cell-based
[3] = target: T1, Oxytocin receptor (Homo sapiens, UniProt P30559); assay: Agonist activity at human OTR expressed in CHO cells assessed as calcium mobilization measured after 30 mins by Fluo-4-AM dye based FLIPR assay; type: functional, cell-based
T1 sequence (P30559 whole entry): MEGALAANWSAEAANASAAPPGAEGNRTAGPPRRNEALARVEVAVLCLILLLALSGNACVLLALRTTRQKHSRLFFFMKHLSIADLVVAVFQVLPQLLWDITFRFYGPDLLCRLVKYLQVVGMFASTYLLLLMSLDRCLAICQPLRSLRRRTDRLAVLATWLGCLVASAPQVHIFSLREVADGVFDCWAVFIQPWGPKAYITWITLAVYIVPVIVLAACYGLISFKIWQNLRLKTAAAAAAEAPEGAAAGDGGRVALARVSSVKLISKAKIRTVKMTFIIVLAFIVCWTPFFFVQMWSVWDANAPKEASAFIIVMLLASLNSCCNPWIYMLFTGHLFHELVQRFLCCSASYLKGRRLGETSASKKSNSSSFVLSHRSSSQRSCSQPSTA

[4] = target: T2, Vasopressin V1b receptor (Homo sapiens, UniProt P47901); assay: Agonist activity at human V1b receptor expressed in CHO cells assessed as calcium mobilization measured after 30 mins by Fluo-4-AM dye based FLIPR assay; type: cell-based
T2 sequence (P47901 whole entry): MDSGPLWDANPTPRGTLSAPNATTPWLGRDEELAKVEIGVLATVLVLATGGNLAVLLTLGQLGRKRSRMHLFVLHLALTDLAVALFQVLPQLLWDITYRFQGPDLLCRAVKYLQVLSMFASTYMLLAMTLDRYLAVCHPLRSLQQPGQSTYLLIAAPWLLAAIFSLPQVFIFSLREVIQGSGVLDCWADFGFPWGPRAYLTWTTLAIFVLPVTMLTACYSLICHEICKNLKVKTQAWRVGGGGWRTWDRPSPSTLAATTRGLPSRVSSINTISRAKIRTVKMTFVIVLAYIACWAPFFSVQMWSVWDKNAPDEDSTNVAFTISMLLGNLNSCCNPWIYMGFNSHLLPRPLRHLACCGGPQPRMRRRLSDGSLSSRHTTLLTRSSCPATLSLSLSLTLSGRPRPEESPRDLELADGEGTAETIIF

[5] = species: Homo sapiens; assay: Selectivity ratio of EC50 for human V1b receptor to EC50 for human OTR

Chain of Vasopressin V1a receptor (P37288 whole entry): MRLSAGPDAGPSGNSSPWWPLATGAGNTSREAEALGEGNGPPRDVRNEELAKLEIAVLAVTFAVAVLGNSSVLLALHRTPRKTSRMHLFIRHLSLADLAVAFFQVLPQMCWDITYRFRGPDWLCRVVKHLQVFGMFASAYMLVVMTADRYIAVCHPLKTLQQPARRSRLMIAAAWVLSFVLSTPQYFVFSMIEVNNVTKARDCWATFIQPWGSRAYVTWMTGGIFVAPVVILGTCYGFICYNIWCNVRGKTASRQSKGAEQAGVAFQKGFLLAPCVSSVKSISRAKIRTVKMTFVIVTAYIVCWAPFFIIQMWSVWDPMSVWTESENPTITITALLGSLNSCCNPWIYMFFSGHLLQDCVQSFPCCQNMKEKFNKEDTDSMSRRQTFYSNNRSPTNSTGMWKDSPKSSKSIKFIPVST

Compound	Ratio EC50 [1]	EC50 [2]	EC50 [3]	EC50 [4]	Ratio EC50 [5]
CC[C@H](C)[C@@H]1NC(=O)[C@H](Cc2ccc(O)cc2)NC(=O)CCCSC[C@@H](C(=O)N2C[C@H](O)C[C@H]2C(=O)N[C@@H](CC(C)C)C(=O)NCC(N)=O)NC(=O)[C@H](CC(N)=O)NC(=O)[C@H](CCC(N)=O)NC1=O (YIQNC[Hyp]LG-NH2; linker N-5 via X1)	> 10000	> 100 nM	0.0055 nM	> 100 nM	> 10000
CC[C@H](C)[C@@H]1NC(=O)[C@H](Cc2ccc(O)cc2)NC(=O)CCSSC[C@@H](C(=O)N2CCC[C@H]2C(=O)N[C@@H](CC(C)C)C(=O)NCC(N)=O)NC(=O)[C@H](CC(N)=O)NC(=O)[C@H](CCCNC(=N)N)NC1=O ([Mpa]YIRNCPLG-NH2; disulfide 1-6)	> 10	> 100 nM	1.2 nM	9 nM	7.5
CC[C@H](C)[C@@H]1NC(=O)[C@H](Cc2ccc(O)cc2)NC(=O)CCSSC[C@@H](C(=O)N2CCC[C@H]2C(=O)N[C@@H](CC(C)C)C(=O)N[C@@H](CCCNC(=N)N)C(N)=O)NC(=O)[C@H](CC(N)=O)NC(=O)[C@H](CCC(N)=O)NC1=O ([Mpa]YIQNCPLR-NH2; disulfide 1-6)	> 100	> 100 nM	0.53 nM	> 100 nM	> 100
CC[C@H](C)[C@@H]1NC(=O)[C@H](Cc2ccc(O)cc2)NC(=O)CCSSC[C@@H](C(=O)N[C@@H](C)C(=O)N[C@@H](CC(C)C)C(=O)NCC(N)=O)NC(=O)[C@H](CC(N)=O)NC(=O)[C@H](CCC(N)=O)NC1=O ([Mpa]YIQNCALG-NH2; disulfide 1-6)	> 1000	> 100 nM	0.07 nM	> 100 nM	> 1000
CC[C@H](C)[C@@H]1NC(=O)[C@H](Cc2ccc(O)cc2)NC(=O)CCSSC[C@@H](C(=O)N[C@@H](CO)C(=O)N[C@@H](CC(C)C)C(=O)NCC(N)=O)NC(=O)[C@H](CC(N)=O)NC(=O)[C@H](CCC(N)=O)NC1=O ([Mpa]YIQNCSLG-NH2; disulfide 1-6)	> 1000	> 100 nM	0.082 nM	> 100 nM	> 1000
CC[C@H](C)[C@@H]1NC(=O)[C@H](Cc2ccc(O)cc2)NC(=O)CCSSC[C@@H](C(=O)N2CCC[C@H]2C(=O)N[C@@H](CC(C)C)C(=O)N[C@@H](CC(C)C)C(N)=O)NC(=O)[C@H](CC(N)=O)NC(=O)[C@H](CCC(N)=O)NC1=O ([Mpa]YIQNCPLL-NH2; disulfide 1-6)	> 10	> 100 nM	1.6 nM	> 100 nM	> 10
CC[C@H](C)[C@@H]1NC(=O)[C@H](Cc2ccc(O)cc2)NC(=O)CCSSC[C@@H](C(=O)N(C)[C@@H](CO)C(=O)N[C@@H](CC(C)C)C(=O)NCC(N)=O)NC(=O)[C@H](CC(N)=O)NC(=O)[C@H](CCC(N)=O)NC1=O ([Mpa]YIQNC[NMeS]LG-NH2; disulfide 1-6)	> 1000	> 100 nM	0.042 nM	> 100 nM	> 1000
CC[C@H](C)[C@@H]1NC(=O)[C@H](Cc2ccc(O)cc2)NC(=O)CCSSC[C@@H](C(=O)N2CCC[C@H]2C(=O)N[C@@H](CC(C)C)C(=O)NCC(N)=O)NC(=O)[C@H](CCC(=O)O)NC(=O)[C@H](CCC(N)=O)NC1=O ([Mpa]YIQECPLG-NH2; disulfide 1-6)	> 1	> 100 nM	89 nM	> 100 nM	> 1
CC[C@H](C)[C@@H]1NC(=O)[C@H](Cc2ccc(O)cc2)NC(=O)CCSSC[C@@H](C(=O)N2CCC[C@H]2C(=O)N[C@@H](CC(C)C)C(=O)NCC(N)=O)NC(=O)[C@H](CC(N)=O)NC(=O)[C@H](C)NC1=O ([Mpa]YIANCPLG-NH2; disulfide 1-6)	> 100	> 100 nM	0.24 nM	69 nM	290
CC[C@H](C)[C@@H]1NC(=O)[C@H](Cc2ccc(O)cc2)NC(=O)CCSSC[C@@H](C(=O)N2CCC[C@H]2C(=O)N[C@@H](CC(C)C)C(=O)NCC(N)=O)NC(=O)[C@H](CC(N)=O)NC(=O)[C@H](CCC(=O)O)NC1=O ([Mpa]YIENCPLG-NH2; disulfide 1-6)	> 10	> 100 nM	5.1 nM	> 100 nM	> 10
CC[C@H](C)[C@@H]1NC(=O)[C@H](Cc2ccc(O)cc2)NC(=O)CCC(=O)NC[C@@H](C(=O)N2CCC[C@H]2C(=O)N[C@@H](CC(C)C)C(=O)NCC(N)=O)NC(=O)[C@H](CC(N)=O)NC(=O)[C@H](CCC(N)=O)NC1=O (YIQN[Dap]PLG-NH2; linker N-5 via Suc)	> 100	> 100 nM	0.12 nM	> 100 nM	> 100
CC[C@H](C)[C@@H]1NC(=O)[C@H](Cc2ccc(O)cc2)NC(=O)CCSSC[C@@H](C(=O)N2CCC[C@H]2C(=O)N[C@@H](CCC(=O)O)C(=O)NCC(N)=O)NC(=O)[C@H](CC(N)=O)NC(=O)[C@H](CCC(N)=O)NC1=O ([Mpa]YIQNCPEG-NH2; disulfide 1-6)	> 100	> 100 nM	0.25 nM	> 100 nM	> 100
CC[C@H](C)[C@@H]1NC(=O)[C@H](Cc2ccc(O)cc2)NC(=O)CCSSC[C@@H](C(=O)N2C[C@@H](O)C[C@H]2C(=O)N[C@@H](CC(C)C)C(=O)NCC(N)=O)NC(=O)[C@H](CC(N)=O)NC(=O)[C@H](CCC(N)=O)NC1=O	> 10000	> 100 nM	0.007 nM	8.2 nM	1200
CC[C@H](C)[C@@H]1NC(=O)[C@H](Cc2ccc(O)cc2)NC(=O)CCSSC[C@@H](C(=O)N2CCC[C@H]2C(=O)N[C@@H](CC(C)(C)C)C(=O)NCC(N)=O)NC(=O)[C@H](CC(N)=O)NC(=O)[C@H](CCC(N)=O)NC1=O	> 10000	> 100 nM	0.0086 nM	> 100 nM	> 10000
CC[C@H](C)[C@@H]1NC(=O)[C@H](Cc2ccc(O)cc2)NC(=O)CCNC(=O)C[C@@H](C(=O)N2CCC[C@H]2C(=O)N[C@@H](CC(C)C)C(=O)NCC(N)=O)NC(=O)[C@H](CC(N)=O)NC(=O)[C@H](CCC(N)=O)NC1=O ([βAla]YIQNDPLG-NH2; lactam N-6)	> 7.7	> 100 nM	13 nM	> 100 nM	> 7.7
CCCCCCC(NC(=O)[C@@H]1CCCN1C(=O)[C@@H]1CSSCCC(=O)N[C@@H](Cc2ccc(O)cc2)C(=O)N[C@@H]([C@@H](C)CC)C(=O)N[C@@H](CCC(N)=O)C(=O)N[C@@H](CC(N)=O)C(=O)N1)C(=O)NCC(N)=O (stereo not given in full)	120	3.1 nM	0.027 nM	0.55 nM	20
CC[C@H](C)[C@@H]1NC(=O)[C@H](Cc2ccc(O)cc2)NC(=O)CCSSC[C@@H](C(=O)N2CCC[C@H]2C(=O)N[C@@H](CC(C)C)C(=O)N[C@@H](C)C(N)=O)NC(=O)[C@H](CC(N)=O)NC(=O)[C@H](CCC(N)=O)NC1=O ([Mpa]YIQNCPLA-NH2; disulfide 1-6)	> 10	> 100 nM	1.4 nM	> 100 nM	> 10
CC[C@H](C)[C@@H]1NC(=O)[C@H](Cc2ccc(O)cc2)NC(=O)CCSSC[C@@H](C(=O)NCC(=O)N[C@@H](CC(C)C)C(=O)NCC(N)=O)NC(=O)[C@H](CC(N)=O)NC(=O)[C@H](CCC(N)=O)NC1=O ([Mpa]YIQNCGLG-NH2; disulfide 1-6)	> 1000	> 100 nM	0.013 nM	> 100 nM	> 1000
CC[C@H](C)[C@@H]1NC(=O)[C@H](Cc2ccc(O)cc2)NC(=O)CCSSC[C@@H](C(=O)N2CCC[C@H]2C(=O)N[C@@H](CC(C)C)C(=O)N[C@@H](Cc2ccccc2)C(N)=O)NC(=O)[C@H](CC(N)=O)NC(=O)[C@H](CCC(N)=O)NC1=O ([Mpa]YIQNCPLF-NH2; disulfide 1-6)	> 10	> 100 nM	1.6 nM	> 100 nM	> 10
CC[C@H](C)[C@@H]1NC(=O)[C@H](Cc2ccc(O)cc2)NC(=O)CCC(=O)NC[C@@H](C(=O)N2C[C@H](O)C[C@H]2C(=O)N[C@@H](CC(C)C)C(=O)NNC(N)=O)NC(=O)[C@H](CC(N)=O)NC(=O)[C@H](CCC(N)=O)NC1=O (YIQN[Dap][Hyp]L[azaGly]-NH2; linker N-5 via Suc)	> 1000	> 100 nM	0.031 nM	> 100 nM	> 1000
